According to PubChem BioAssay AID489024 (Sanford-Burnham Center for Chemical Genomics, 2010):
Active and inactive are the calls of the source.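 The calls were made as follows: active = compounds whose mean EC50, the dose giving half the maximal reporter activation, is at or below a set limit; inactive = the rest.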

Target: CHO-CHOP luciferase reporter, UPR activation, luminescence
Assay: CHOP reporter induction, apoptotic UPR branch – CHO-CHOP cells, luciferase luminescence, confirmation (AID 489024);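 also: compounds added alone to reporter cells with no tunicamycin stress co-treatment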

Compound	EC50
O=C(N/N=C/c1ccccn1)c1ccc(Cl)c(Cl)c1	2.93 µM
O=C(/C=C/c1ccc(O)c(O)c1)c1ccccc1O	4.64 µM
CCOC(=O)c1cnc(Nc2nc3ccccc3o2)nc1CSC(=S)N1CCCCC1	1.3 µM
O=C1CC(c2cccc(Cl)c2)CC(O)=C1C=Nc1ccccc1 (stereo not given)	16.2 µM
COc1cccc2sc(Nc3nnc(-c4cccs4)o3)nc12	6.83 µM
Cc1cccc(-n2ncc(Cl)c(Cl)c2=O)c1	7.81 µM
O=C(O)CC1CCC(=C(Cl)Cl)C1 (stereo not given)	> 80 µM (inactive)
Oc1cc(-c2ccncc2)cc2cccnc12	> 80 µM (inactive)
Cc1ccc(C)c2sc(N3CCN(C(=O)c4ccc([N+](=O)[O-])o4)CC3)nc12	18.9 µM
CCn1c(-c2ccccc2)c(C(=O)CCl)c2ccccc21	8.47 µM
Cc1ccn2cc(-c3ccc(O)c(O)c3)nc2c1	5.31 µM
CCOc1cc(C=C(C(=O)OC)C(=O)OC)ccc1OCc1ccc([N+](=O)[O-])cc1	6.82 µM
C[C@@H]1C[C@@H]2O[C@H]2/C=C\C=C\C(=O)Cc2c(Cl)c(O)cc(O)c2C(=O)O1	5.32 µM
CC1(C)CCSC(/C=C/c2ccccc2)=N1	> 80 µM (inactive)
CCOc1ccccc1-n1c(SCC(=O)Nc2ccc(CC)cc2)nc2n[nH]c(C)c2c1=N	7.22 µM
O=C1NC(=O)N(Cc2ccccc2Cl)C(=O)/C1=C/c1cccs1	15.9 µM
O=C(NC1CCCC1)C(c1ccc(Cl)cc1)N(Cc1ccc(F)cc1)C(=O)CCl (stereo not given)	8.34 µM
O=C(Nc1ccc(Cc2ccncc2)cc1)c1ccc([N+](=O)[O-])o1	1.54 µM
CCOC(=O)N1CCN(Cc2ccc(O)c3ncccc23)CC1	16.4 µM
Cc1noc2ncnc(Sc3ccc(Br)cc3)c12	9.31 µM
CCCN1Cc2cccc(C(=O)Nc3ccc(-c4nc5ccccc5[nH]4)cc3)c2C1=O	> 80 µM (inactive)
O=C(Nc1nc(-c2ccccn2)cs1)c1cc(Cl)ccc1[N+](=O)[O-]	6.29 µM
O=C(Cn1cc(/C=C\[N+](=O)[O-])c2ccccc21)Nc1ccccc1	7.5 µM

Compound	EC50
CC1(C)CC(=O)C2=C(C1)Oc1nc3ccccc3cc1C2C(C#N)C#N (stereo not given)	> 80 µM (inactive)
Cc1ccc(N2C(=O)NC(=O)/C(=C/C=C/c3ccco3)C2=O)cc1	11.5 µM
Cc1nn(Cc2c(Cl)cccc2Cl)c(C)c1NC(=O)c1cn(-c2ccccc2)nc1-c1ccccc1	7.37 µM
O=c1c2c3c(sc2ncn1/N=C/c1ccc([N+](=O)[O-])o1)CCCC3	7.01 µM
O=c1cc(C(Cl)(Cl)Cl)oc2c1ccc1ccccc12	> 80 µM (inactive)
COC(=O)Oc1ccc(/C=C/C(=O)OC(C)C)cc1OC(=O)OC	14 µM
COc1ccc(C(=O)N/N=C(\C)c2ccccn2)cc1OC	2.82 µM
O=C(/C=C/c1ccco1)NC(=S)Nc1ccc(O)c(-c2nc3ccccc3s2)c1	11.8 µM
CCCCCC(=O)Nc1ccc(C(=O)N/N=C/c2ccc([N+](=O)[O-])cc2)cc1	inactive
Cc1ccc2[nH]cc(C(=O)CCl)c2c1	7.64 µM
COc1ccc(C(=O)/C=C2/C(=O)Nc3ccccc32)c(OC)c1	8.48 µM
Nc1nnnn1/N=C/C(Br)=C/c1ccccc1	2.22 µM
O=C(Nc1cccc(-c2nc3cccnc3s2)c1)C1c2ccccc2Oc2ccccc21	6.89 µM
COc1cc(C(=O)Oc2c(CN3CCOCC3)cc(Cl)c3cccnc23)cc(OC)c1OC	inactive
CC1CCC/C=C/C(=O)c2c(O)cc(O)cc2CC(=O)O1 (stereo not given)	> 80 µM (inactive)
Oc1ccc(CN2CCC(Cc3ccccc3)CC2)c2cccnc12	5.4 µM
COc1cc(SC#N)ccc1N=Cc1c(C)[nH]n(-c2ccc(C)c(C)c2)c1=O	12.8 µM
CC1=NOC(=O)/C1=C/c1ccc(-c2ccc(Cl)cc2)o1	9.98 µM
CN(C)S(=O)(=O)c1cccc(NC(=O)CSc2cccc3cccnc23)c1	7.59 µM
CN1CCN(Cc2cc(COCc3ccccc3)c3cccnc3c2O)CC1	12.8 µM
COc1ccc(Cn2c(SCc3ccc(C)cc3)nc3cc(OC)c(OC)cc3c2=N)cc1Cl	14 µM
COc1ccc(N2C(=O)/C(=C/c3cccs3)C(=O)NC2=S)cc1	9.09 µM
